# Laboratory results as given in the supplement of paper PMC10307832.
# Legend:
# Test in all cases: relative viability (nuclei count vs DMSO), 5 days (fraction); higher = more cells survive
# [1] = tested on: SK-LU-1
# How it was run: (§1)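 Lung cancer cell lines in 1536-well plates were dosed by pin tool the day after seeding, either with one drug alone or with a fixed anchor-drug dose plus five library-drug doses (not always all listed) in √10 steps. After 5 days, cells were fixed and their nuclei stained in one step (final 0.05% Triton X-100, 1% formaldehyde, 1 ug/ml Hoechst), then counted on 4× images. Relative viability is the nuclei count in treated wells divided by that in vehicle wells. Values are medians of duplicate plates.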
# [2] = tested on: Calu-6
# How it was run: as §1
# [3] = tested on: NCI-H1666
# How it was run: as §1
# [4] = tested on: IA-LM
# How it was run: as §1
# [5] = tested on: PC-14
# How it was run: as §1
# [6] = tested on: EBC-1
# How it was run: as §1
# [7] = tested on: NCI-H1703
# How it was run: as §1
# [8] = tested on: NCI-H1944
# How it was run: as §1
# [9] = tested on: A549
# How it was run: as §1
# [10] = tested on: NCI-H661
# How it was run: as §1
# [11] = tested on: NCI-H596
# How it was run: as §1
# [12] = tested on: NCI-H1299
# How it was run: as §1
structure (smiles),measurement,setting,value
CCNC(=O)c1noc(-c2cc(C(C)C)c(O)cc2O)c1-c1ccc(CN2CCOCC2)cc1 [Luminespib] + C[C@]1(O)C[C@@H](c2nc(-c3ccc4ccc(-c5ccccc5)nc4c3)c3c(N)nccn32)C1 [Linsitinib] (partner 1 µM),relative viability,[1]; first compound 0.002 µM,1.02
same,relative viability,[1]; first compound 0.006325 µM,0.89
same,relative viability,[1]; first compound 0.02 µM,0.474
same,relative viability,[1]; first compound 0.06325 µM,0.193
same,relative viability,[1]; first compound 0.2 µM,0.178
same,relative viability,[2]; first compound 0.002 µM,1.08
same,relative viability,[2]; first compound 0.006325 µM,0.783
same,relative viability,[2]; first compound 0.02 µM,0.712
same,relative viability,[2]; first compound 0.06325 µM,0.0985
same,relative viability,[2]; first compound 0.2 µM,0.0978
same,relative viability,[3]; first compound 0.002 µM,0.707
same,relative viability,[3]; first compound 0.006325 µM,0.785
same,relative viability,[3]; first compound 0.02 µM,0.751
same,relative viability,[3]; first compound 0.06325 µM,0.803
same,relative viability,[3]; first compound 0.2 µM,0.511
same,relative viability,[4]; first compound 0.002 µM,0.601
same,relative viability,[4]; first compound 0.006325 µM,0.424
same,relative viability,[4]; first compound 0.02 µM,0.284
same,relative viability,[4]; first compound 0.06325 µM,0.0358
same,relative viability,[4]; first compound 0.2 µM,0.0299
same,relative viability,[5]; first compound 0.002 µM,0.896
same,relative viability,[5]; first compound 0.006325 µM,0.897
same,relative viability,[5]; first compound 0.02 µM,1.09
same,relative viability,[5]; first compound 0.06325 µM,0.936
same,relative viability,[5]; first compound 0.2 µM,0.146
same,relative viability,[6]; first compound 0.002 µM,0.919
same,relative viability,[6]; first compound 0.006325 µM,0.89
same,relative viability,[6]; first compound 0.02 µM,0.273
same,relative viability,[6]; first compound 0.06325 µM,0.0912
same,relative viability,[6]; first compound 0.2 µM,0.0942
same,relative viability,[7]; first compound 0.002 µM,1.26
same,relative viability,[7]; first compound 0.006325 µM,0.448
same,relative viability,[7]; first compound 0.02 µM,0.426
same,relative viability,[7]; first compound 0.06325 µM,0.0721
same,relative viability,[7]; first compound 0.2 µM,0.123
same,relative viability,[8]; first compound 0.002 µM,1.21
same,relative viability,[8]; first compound 0.006325 µM,1.1
same,relative viability,[8]; first compound 0.02 µM,0.791
same,relative viability,[8]; first compound 0.06325 µM,1.07
same,relative viability,[8]; first compound 0.2 µM,1.09
same,relative viability,[9]; first compound 0.002 µM,0.645
same,relative viability,[9]; first compound 0.006325 µM,0.583
same,relative viability,[9]; first compound 0.02 µM,0.236
same,relative viability,[9]; first compound 0.06325 µM,0.14
same,relative viability,[9]; first compound 0.2 µM,0.0621
same,relative viability,[10]; first compound 0.002 µM,0.569
same,relative viability,[10]; first compound 0.006325 µM,0.527
same,relative viability,[10]; first compound 0.02 µM,0.369
same,relative viability,[10]; first compound 0.06325 µM,0.395
same,relative viability,[10]; first compound 0.2 µM,0.187
same,relative viability,[11]; first compound 0.002 µM,1.06
same,relative viability,[11]; first compound 0.006325 µM,0.995
same,relative viability,[11]; first compound 0.06325 µM,1.06
same,relative viability,[11]; first compound 0.2 µM,0.907
same,relative viability,[12]; first compound 0.002 µM,0.978
same,relative viability,[12]; first compound 0.006325 µM,0.935
same,relative viability,[12]; first compound 0.02 µM,0.989
same,relative viability,[12]; first compound 0.06325 µM,0.582
same,relative viability,[12]; first compound 0.2 µM,0.451
